Measured values as given in US20130303509A1, “NAMPT INHIBITORS” (AbbVie Inc., priority 2012, published 2013).

test system: PC3 cells; assay: NAMPT Cell Proliferation Assay; format: cell-based; conditions: Homo sapiens, PC-3, 120 h, 5 days incubation, cell viability by Cell Titer Glo
In short: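 Five-day CellTiter-Glo viability readout in PC3 cells grown in RPMI/10% heat-inactivated FBS. Compounds added after overnight attachment as a 10-fold dilution series, […]. Percent inhibition fitted to sigmoidal dose-response to derive IC50.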

Going from O=C(Nc1ccc(O[C@@H]2CCN(C(=O)c3cccc(F)c3)C2)cc1)C1CN(c2ccnnc2)C1 [Example 476, N-(4-{[(3R)-1-(3-fluorobenzoyl)pyrrolidin-3-yl]oxy}phenyl)-1-(pyridazin-4-yl)azetidine-3-carboxamide] to O=C(Nc1ccc(OC2CCN(C(=O)c3cc(F)cc(F)c3)CC2)cc1)C1CN(c2ccnnc2)C1 [Example 299, N-(4-{[1-(3,5-difluorobenzoyl)piperidin-4-yl]oxy}phenyl)-1-(pyridazin-4-yl)azetidine-3-carboxamide], the IC50 rises from 17.4 nM to 84.6 nM (4.9-fold).

Going from O=C(Nc1ccc(C2CCN(C(=O)c3cccc(C(F)(F)F)c3)CC2)cc1)C1CN(c2ccnnc2)C1 [Example 535, 1-(pyridazin-4-yl)-N-(4-{1-[3-(trifluoromethyl)benzoyl]piperidin-4-yl}phenyl)azetidine-3-carboxamide] to O=C(Nc1ccc(C2CCN(C(=O)c3ccc(F)c(F)c3)CC2)cc1)C1CN(c2ccnnc2)C1 [Example 533, N-{4-[1-(3,4-difluorobenzoyl)piperidin-4-yl]phenyl}-1-(pyridazin-4-yl)azetidine-3-carboxamide], the IC50 rises from 9.39 nM to 24.6 nM (2.6-fold). The first is the more potent here.

First: O=C(Nc1ccc(OC2CCN(C(=O)c3ccsc3)CC2)cc1)C1CN(c2cccnn2)C1 [Example 223, 1-(pyridazin-3-yl)-N-(4-{[1-(thiophen-3-ylcarbonyl)piperidin-4-yl]oxy}phenyl)azetidine-3-carboxamide]
Second: O=C(Nc1ccc(OC2CCN(C(=O)c3cccc(C(F)(F)F)c3)CC2)cc1)C1CN(c2cccnn2)C1 [Example 222, 1-(pyridazin-3-yl)-N-[4-({1-[3-(trifluoromethyl)benzoyl]piperidin-4-yl}oxy)phenyl]azetidine-3-carboxamide]
The IC50 of the first is 2.8-fold lower: 5.5 nM for the first, 15.5 nM for the second.

Going from CC(C)(C)C(=O)N1CCC(c2ccc(NC(=O)C3CN(c4cccnn4)C3)c(F)c2)CC1 [Example 859, N-{4-[1-(2,2-dimethylpropanoyl)piperidin-4-yl]-2-fluorophenyl}-1-(pyridazin-3-yl)azetidine-3-carboxamide] to O=C(Nc1ccc(C2CCN(C(=O)CC3CC3)CC2)cc1F)C1CN(c2cccnn2)C1 [Example 862, N-{4-[1-(cyclopropylacetyl)piperidin-4-yl]-2-fluorophenyl}-1-(pyridazin-3-yl)azetidine-3-carboxamide], the IC50 rises from 2.7 nM to 8.49 nM (3.1-fold). The first is the more potent here.

Going from O=C(Nc1ccc(C2CCN(C(=O)c3ccsc3)CC2)cc1)C1CN(c2cccnc2)C1 [Example 109, 1-(pyridin-3-yl)-N-{4-[1-(thiophen-3-ylcarbonyl)piperidin-4-yl]phenyl}azetidine-3-carboxamide] to O=C(Nc1ccc(C2CCN(C(=O)c3ccco3)CC2)cc1)C1CN(c2cccnc2)C1 [Example 129, N-{4-[1-(furan-2-ylcarbonyl)piperidin-4-yl]phenyl}-1-(pyridin-3-yl)azetidine-3-carboxamide], the IC50 falls from 0.66 nM to 0.16 nM (4.1-fold). The second is the more potent here.

First: CC(C)(C)C(=O)N1CCC(Oc2ccc(NC(=O)[C@H]3CCN(c4cccnn4)C3)cc2)CC1 [Example 801, (3S)-N-(4-{[1-(2,2-dimethylpropanoyl)piperidin-4-yl]oxy}phenyl)-1-(pyridazin-3-yl)pyrrolidine-3-carboxamide]
Second: COCC(=O)N1CCC(Oc2ccc(NC(=O)C3CN(c4cccnn4)C3)cc2)CC1 [Example 246, N-(4-{[1-(methoxyacetyl)piperidin-4-yl]oxy}phenyl)-1-(pyridazin-3-yl)azetidine-3-carboxamide]
The IC50 of the first is 2.5-fold higher: 24.6 nM for the first, 9.65 nM for the second.

Going from O=C(Nc1ccc(C2CCN(C(=O)CC3CC3)CC2)cc1)C1CN(c2ccnnc2)C1 [Example 527, N-{4-[1-(cyclopropylacetyl)piperidin-4-yl]phenyl}-1-(pyridazin-4-yl)azetidine-3-carboxamide] to CC(C)C(=O)N1CCC(c2ccc(NC(=O)C3CN(c4cccnc4)C3)cc2)CC1 [Example 30, N-{4-[1-(2-methylpropanoyl)piperidin-4-yl]phenyl}-1-(pyridin-3-yl)azetidine-3-carboxamide], the IC50 falls from 7.78 nM to 1.97 nM (3.9-fold).

Compared with O=C(Nc1ccc(C2CCN(C(=O)CCC(F)(F)F)CC2)cc1)C1CCN(c2cccnn2)CC1 [Example 628, 1-(pyridazin-3-yl)-N-{4-[1-(4,4,4-trifluorobutanoyl)piperidin-4-yl]phenyl}piperidine-4-carboxamide], O=C(Nc1ccc(C2CCN(C(=O)c3cc(C(F)(F)F)ccc3F)CC2)cc1)C1CN(c2cccnn2)C1 [Example 394, N-(4-{1-[2-fluoro-5-(trifluoromethyl)benzoyl]piperidin-4-yl}phenyl)-1-(pyridazin-3-yl)azetidine-3-carboxamide] is lower in IC50: over 10000 nM for the first, 1.99 nM for the second. The second is the more potent here.

Compared with CCC(C)(C)C(=O)N1CC[C@@H](Oc2ccc(NC(=O)C3CN(c4cccnn4)C3)cc2)C1 [Example 515, N-(4-{[(3R)-1-(2,2-dimethylbutanoyl)pyrrolidin-3-yl]oxy}phenyl)-1-(pyridazin-3-yl)azetidine-3-carboxamide], O=C(Nc1ccc(OC2CCN(C(=O)C3CCOC3)CC2)cc1)C1CN(c2cccnn2)C1 (centres unmarked) [Example 226, 1-(pyridazin-3-yl)-N-(4-{[1-(tetrahydrofuran-3-ylcarbonyl)piperidin-4-yl]oxy}phenyl)azetidine-3-carboxamide] is 10-fold higher in IC50: 0.85 nM for the first, 8.89 nM for the second.

First: O=C(Nc1ccc(C2CCN(C(=O)c3ccc(F)cc3F)CC2)cc1F)C1CN(c2cccnn2)C1 [Example 833, N-{4-[1-(2,4-difluorobenzoyl)piperidin-4-yl]-2-fluorophenyl}-1-(pyridazin-3-yl)azetidine-3-carboxamide]
Second: O=C(Nc1ccc(C2CCN(C(=O)c3cccc(F)c3)CC2)cc1)C1CN(c2cccnn2)C1 [Example 348, N-{4-[1-(3-fluorobenzoyl)piperidin-4-yl]phenyl}-1-(pyridazin-3-yl)azetidine-3-carboxamide]
The IC50 of the first is 3.3-fold higher: 6.67 nM for the first, 2 nM for the second. The second is the more potent here.

Compared with CC1(C(=O)N2CCC(c3ccc(C(=O)NC4CN(c5cccnn5)C4)s3)CC2)CC1 [Example 848, 5-{1-[(1-methylcyclopropyl)carbonyl]piperidin-4-yl}-N-[1-(pyridazin-3-yl)azetidin-3-yl]thiophene-2-carboxamide], CC(C)(C)C(=O)N1CCC(c2ccc(C(=O)NC3CN(c4cccnn4)C3)s2)CC1 [Example 847, 5-[1-(2,2-dimethylpropanoyl)piperidin-4-yl]-N-[1-(pyridazin-3-yl)azetidin-3-yl]thiophene-2-carboxamide] is 5.3-fold lower in IC50: 609 nM for the first, 115 nM for the second. The second is the more potent here.

Going from Cn1cccc1C(=O)N1CCC(c2ccc(NC(=O)C3CN(c4cccnc4)C3)cc2)CC1 [Example 128, N-(4-{1-[(1-methyl-1H-pyrrol-2-yl)carbonyl]piperidin-4-yl}phenyl)-1-(pyridin-3-yl)azetidine-3-carboxamide] to CC1(C(=O)N2CCC(c3ccc(NC(=O)C4CN(c5cccnc5)C4)cc3)CC2)CCCCC1 [Example 117, N-(4-{1-[(1-methylcyclohexyl)carbonyl]piperidin-4-yl}phenyl)-1-(pyridin-3-yl)azetidine-3-carboxamide], the IC50 rises from 0.16 nM to 0.63 nM (3.9-fold). The first is the more potent here.

Going from CC(C)C(=O)N1CCC(c2ccc(NC(=O)C3CN(c4ccc(F)nn4)C3)cc2)CC1 [Example 821, 1-(6-fluoropyridazin-3-yl)-N-{4-[1-(2-methylpropanoyl)piperidin-4-yl]phenyl}azetidine-3-carboxamide] to Cc1ccc(C(=O)N2CCC(c3ccc(NC(=O)C4CN(c5cccnn5)C4)cc3)CC2)cn1 [Example 434, N-(4-{1-[(6-methylpyridin-3-yl)carbonyl]piperidin-4-yl}phenyl)-1-(pyridazin-3-yl)azetidine-3-carboxamide], the IC50 falls from 165 nM to 6.35 nM (26-fold).

Going from CC(C)(O)C(=O)N1CCC(Oc2ccc(NC(=O)C3CN(c4cccnc4)C3)cc2)CC1 [Example 31, N-(4-{[1-(2-hydroxy-2-methylpropanoyl)piperidin-4-yl]oxy}phenyl)-1-(pyridin-3-yl)azetidine-3-carboxamide] to O=C(Nc1ccc(OC2CCN(C(=O)Cc3cccc(C(F)(F)F)c3)CC2)cc1)C1CN(c2ccnnc2)C1 [Example 305, 1-(pyridazin-4-yl)-N-{4-[(1-{[3-(trifluoromethyl)phenyl]acetyl}piperidin-4-yl)oxy]phenyl}azetidine-3-carboxamide], the IC50 rises from 6.9 nM to 102 nM (15-fold).

Cc1ccc(C(=O)N2CCC(c3ccc(NC(=O)C4CN(c5cccnc5C)C4)cc3)CC2)s1 [Example 186, 1-(2-methylpyridin-3-yl)-N-(4-{1-[(5-methylthiophen-2-yl)carbonyl]piperidin-4-yl}phenyl)azetidine-3-carboxamide] and Cc1ncccc1N1CC(C(=O)Nc2ccc(C3CCN(C(=O)c4cccc(Cl)c4)CC3)cc2)C1 [Example 153, N-{4-[1-(3-chlorobenzoyl)piperidin-4-yl]phenyl}-1-(2-methylpyridin-3-yl)azetidine-3-carboxamide] are within 1.5-fold of each other in IC50: 627 nM for the first, 699 nM for the second.

Compared with O=C(NC1CN(c2cccnn2)C1)c1ccc(C2CCN(C(=O)CC(F)(F)F)CC2)s1 [Example 849, N-[1-(pyridazin-3-yl)azetidin-3-yl]-5-[1-(3,3,3-trifluoropropanoyl)piperidin-4-yl]thiophene-2-carboxamide], O=C(Nc1ccc(OC2CCN(C(=O)Cc3ccccc3F)CC2)cc1)C1CN(c2cccnn2)C1 [Example 247, N-[4-({1-[(2-fluorophenyl)acetyl]piperidin-4-yl}oxy)phenyl]-1-(pyridazin-3-yl)azetidine-3-carboxamide] is 86-fold lower in IC50: 685 nM for the first, 7.98 nM for the second. The second is the more potent here.

Going from CCC(CC)CN1CCC(c2ccc(NC(=O)C3CN(c4cccnc4)C3)cc2)CC1 [Example 92, N-{4-[1-(2-ethylbutyl)piperidin-4-yl]phenyl}-1-(pyridin-3-yl)azetidine-3-carboxamide] to CC(C)(C)c1ccc(C(=O)N2CCC(c3ccc(NC(=O)C4CN(c5cccnn5)C4)cc3)CC2)cc1 [Example 393, N-{4-[1-(4-tert-butylbenzoyl)piperidin-4-yl]phenyl}-1-(pyridazin-3-yl)azetidine-3-carboxamide], the IC50 falls from 24 nM to 3.72 nM (6.5-fold). The second is the more potent here.

For O=C(Nc1ccc(O[C@@H]2CCN(C(=O)c3ccc(F)cc3F)C2)cc1)[C@H]1CCN(c2cccnn2)C1 [Example 783, (3S)-N-(4-{[(3R)-1-(2,4-difluorobenzoyl)pyrrolidin-3-yl]oxy}phenyl)-1-(pyridazin-3-yl)pyrrolidine-3-carboxamide], the IC50 was 6.46 nM.
